Test results reported in patent US9233968B1, “Kinase inhibitors” (Allergan, Inc., priority 2014, dated 2016).

Legend:
[1] = molecular target: VEGFR2 (Homo sapiens (Human), UniProt P35968); assay: VEGFR2 Cellular Assay (FLIPR, VEGF induced intracellular calcium in HUVEC); format: cell-based; conditions: VEGF165 stimulation 10 ng/mL, read-out: Receptor VEGFR2 IC50
Method: (§1) VEGFR2 Cellular Assay Automated FLIPR (Fluorometric Imaging Plate Reader) technology was used to screen for inhibitors of VEGF induced increases in intracellular calcium levels in fluorescent dye loaded endothelial cells. HUVEC (human umbilical vein endothelial cells) (Clonetics) were seeded in 384-well fibronectin coated black-walled plates overnight at 37° C./5% CO2. Cells were loaded with calcium indicator Fluo-4 for 45 minutes at 37° C. Cells were washed 2 times (Elx405, Biotek Instruments) to remove extracellular dye. For screening, cells were pre-incubated with test agents for 30 minutes, at a single concentration (10 μM) or at concentrations ranging from 0.0001 to 10.0 μM followed by VEGF165 stimulation (10 ng/mL). […] Data were generated by determining max-min fluorescence levels for unstimulated, stimulated, and drug treated samples. IC50 values for test compounds were calculated from % inhibition of VEGF stimulated responses in the absence of inhibitor.

[2] = molecular target: VEGFR2 (cytoplasmic domain KDR protein) (Homo sapiens (Human), UniProt P35968); assay: VEGFR2 Kinase Assay (biochemical KDR kinase assay); conditions: 2.7 μM ATP, poly-Glu-Tyr substrate; read-out: Enzyme VEGFR2 IC50
Method: Biochemical KDR kinase assays were performed in 96 well microtiter plates that were coated overnight with 75 μg/well of poly-Glu-Tyr (4:1) in 10 mM Phosphate Buffered Saline (PBS), pH 7.4. The coated plates were washed with 2 mls per well PBS+0.05% Tween-20 (PBS-T), blocked by incubation with PBS containing 1% BSA, then washed with 2 mls per well PBS-T prior to starting the reaction. Reactions were carried out in 100 μL reaction volumes containing 2.7 μM ATP in kinase buffer (50 mM Hepes buffer pH 7.4, 20 mM MgCl2, 0.1 mM MnCl2 and 0.2 mM Na3VO4). […] Reactions were initiated by the addition 20 μl per well of kinase buffer containing 200-300 ng purified cytoplasmic domain KDR protein (BPS Bioscience, San Diego, Calif.). Following a 15 minute incubation at 30° C., the reactions were washed 2 mls per well PBS-T. 100 μl of a monoclonal anti-phosphotyrosine antibody-peroxidase conjugate diluted 1:10,000 in PBS-T was added to the wells for 30 minutes. Following a 2 mls per well wash with PBS-Tween-20, 100 μl of O-Phenylenediamine Dihydrochloride in phosphate-citrate buffer, containing urea hydrogen peroxide, was added to the wells for 7-10 minutes as a colorimetric substrate for the peroxidase. The reaction was terminated by the addition of 100 μl of 2.5N H2SO4 to each well and read using a microplate ELISA reader set at 492 nm. IC50 values for compound inhibition were calculated directly from graphs of optical density (arbitrary units) versus compound concentration following subtraction of blank values.

[3] = molecular target: PDGFRβ (cytoplasmic domain PDGFR-b protein) (Homo sapiens (Human), UniProt P09619); assay: PDGFRβ Kinase Assay; format: biochemical; conditions: 36 μM ATP, poly-Glu-Tyr substrate; read-out: Enzyme PDGFRβ IC50
Method: Biochemical PDGFRβ kinase assays were performed in 96 well microtiter plates that were coated overnight with 75 μg of poly-Glu-Tyr (4:1) in 10 mM Phosphate Buffered Saline (PBS), pH 7.4. The coated plates were washed with 2 mls per well PBS+0.05% Tween-20 (PBS-T), blocked by incubation with PBS containing 1% BSA, then washed with 2 mls per well PBS-T prior to starting the reaction. […] Reactions were initiated by the addition 20 μl per well of kinase buffer containing 200-300 ng purified cytoplasmic domain PDGFR-b protein (Millipore). Following a 60 minute incubation at 30° C., the reactions were washed 2 mls per well PBS-T. 100 μl of a monoclonal anti-phosphotyrosine antibody-peroxidase conjugate diluted 1:10,000 in PBS-T was added to the wells for 30 minutes. Following a 2 mls per well wash with PBS-Tween-20, 100 μl of O-Phenylenediamine Dihydrochloride in phosphate-citrate buffer, containing urea hydrogen peroxide, was added to the wells for 7-10 minutes as a colorimetric substrate for the peroxidase. […] IC50 values for compound inhibition were calculated directly from graphs of optical density (arbitrary units) versus compound concentration following subtraction of blank values.

[4] = molecular target: PDGFRβ (Homo sapiens (Human), UniProt P09619); assay: PDGFRβ Cellular Assay (FLIPR, PDGF-induced intracellular calcium in NHDF-Ad); format: cell-based; conditions: PDGF-BB stimulation 30 ng/mL, read-out: Receptor PDGFRβ IC50
Method: as §1, with “Automated” for “VEGFR2 Cellular Assay Automated”, “of PDGF-induced” for “of VEGF induced”, “cells. NHDF-Ad (Normal Human Dermal Fibroblasts, Adult; Lonza)” for “cells. HUVEC (human umbilical vein endothelial cells) (Clonetics)”, “by PDGF-BB” for “by VEGF165”, “stimulation (30” for “stimulation (10”, “of PDGF-BB” for “of VEGF”

Sequence of PDGFRβ (P09619 33-1106): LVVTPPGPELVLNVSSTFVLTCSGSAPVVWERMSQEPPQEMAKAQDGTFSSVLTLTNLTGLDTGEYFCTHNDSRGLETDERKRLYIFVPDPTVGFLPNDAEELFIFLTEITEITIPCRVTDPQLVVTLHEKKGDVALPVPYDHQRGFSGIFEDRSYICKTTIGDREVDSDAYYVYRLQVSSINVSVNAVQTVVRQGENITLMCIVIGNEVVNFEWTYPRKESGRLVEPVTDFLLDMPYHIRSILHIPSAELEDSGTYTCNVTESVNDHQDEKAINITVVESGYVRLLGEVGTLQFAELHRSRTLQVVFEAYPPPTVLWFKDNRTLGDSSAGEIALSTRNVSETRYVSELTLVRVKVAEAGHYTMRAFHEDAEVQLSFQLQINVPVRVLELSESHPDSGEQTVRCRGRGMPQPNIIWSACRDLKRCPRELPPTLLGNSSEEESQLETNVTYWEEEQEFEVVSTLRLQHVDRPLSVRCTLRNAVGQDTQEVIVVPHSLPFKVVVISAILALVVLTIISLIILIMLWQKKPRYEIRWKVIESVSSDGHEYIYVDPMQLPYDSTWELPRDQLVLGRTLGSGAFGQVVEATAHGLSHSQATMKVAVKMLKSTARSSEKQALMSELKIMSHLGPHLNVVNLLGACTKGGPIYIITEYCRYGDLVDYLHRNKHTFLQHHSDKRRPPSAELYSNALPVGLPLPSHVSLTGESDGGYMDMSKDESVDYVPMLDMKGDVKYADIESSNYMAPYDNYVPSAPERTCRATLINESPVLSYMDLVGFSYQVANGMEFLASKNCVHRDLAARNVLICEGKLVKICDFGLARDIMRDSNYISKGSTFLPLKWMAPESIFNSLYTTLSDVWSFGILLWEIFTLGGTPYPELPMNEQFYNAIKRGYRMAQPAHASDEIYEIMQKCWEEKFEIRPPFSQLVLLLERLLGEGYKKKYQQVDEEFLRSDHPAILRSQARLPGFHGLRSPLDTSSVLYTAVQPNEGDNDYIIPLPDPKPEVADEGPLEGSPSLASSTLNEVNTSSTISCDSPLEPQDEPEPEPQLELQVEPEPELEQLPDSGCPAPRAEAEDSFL
Sequence of VEGFR2 (P35968 20-1356): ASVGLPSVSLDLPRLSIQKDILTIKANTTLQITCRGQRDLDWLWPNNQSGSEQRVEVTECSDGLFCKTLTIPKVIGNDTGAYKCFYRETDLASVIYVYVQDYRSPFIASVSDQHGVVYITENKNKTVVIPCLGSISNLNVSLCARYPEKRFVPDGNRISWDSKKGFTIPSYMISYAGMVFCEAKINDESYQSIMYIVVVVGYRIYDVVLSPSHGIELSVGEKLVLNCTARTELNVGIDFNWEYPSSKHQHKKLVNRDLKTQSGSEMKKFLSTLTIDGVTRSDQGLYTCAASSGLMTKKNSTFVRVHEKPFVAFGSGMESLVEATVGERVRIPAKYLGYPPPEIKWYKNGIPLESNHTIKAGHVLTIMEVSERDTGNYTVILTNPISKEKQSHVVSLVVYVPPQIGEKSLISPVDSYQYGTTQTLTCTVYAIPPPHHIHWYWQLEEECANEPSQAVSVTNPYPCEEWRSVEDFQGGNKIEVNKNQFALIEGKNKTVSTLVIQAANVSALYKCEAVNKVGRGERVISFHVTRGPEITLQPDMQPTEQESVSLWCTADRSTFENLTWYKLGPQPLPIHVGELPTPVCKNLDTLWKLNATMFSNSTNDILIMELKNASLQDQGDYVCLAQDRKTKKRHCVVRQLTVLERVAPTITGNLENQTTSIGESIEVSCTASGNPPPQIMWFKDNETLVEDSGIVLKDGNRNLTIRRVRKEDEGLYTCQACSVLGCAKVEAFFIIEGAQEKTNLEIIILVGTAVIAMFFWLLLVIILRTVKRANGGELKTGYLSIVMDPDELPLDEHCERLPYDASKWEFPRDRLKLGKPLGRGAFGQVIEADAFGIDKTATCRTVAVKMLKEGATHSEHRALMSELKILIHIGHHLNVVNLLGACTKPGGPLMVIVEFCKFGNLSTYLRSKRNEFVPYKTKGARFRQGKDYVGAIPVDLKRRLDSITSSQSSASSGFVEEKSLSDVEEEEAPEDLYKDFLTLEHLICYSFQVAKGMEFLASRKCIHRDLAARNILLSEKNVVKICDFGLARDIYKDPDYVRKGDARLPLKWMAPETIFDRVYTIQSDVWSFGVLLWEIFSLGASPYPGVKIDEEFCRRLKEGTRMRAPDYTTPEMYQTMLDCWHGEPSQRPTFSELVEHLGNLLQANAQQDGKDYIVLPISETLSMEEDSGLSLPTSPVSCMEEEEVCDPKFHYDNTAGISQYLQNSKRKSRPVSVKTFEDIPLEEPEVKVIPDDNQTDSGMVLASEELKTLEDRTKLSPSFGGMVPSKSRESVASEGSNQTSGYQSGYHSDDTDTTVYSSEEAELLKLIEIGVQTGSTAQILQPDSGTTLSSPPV
Sequence of PDGFRβ (cytoplasmic domain PDGFR-b protein) (P09619 554-1106): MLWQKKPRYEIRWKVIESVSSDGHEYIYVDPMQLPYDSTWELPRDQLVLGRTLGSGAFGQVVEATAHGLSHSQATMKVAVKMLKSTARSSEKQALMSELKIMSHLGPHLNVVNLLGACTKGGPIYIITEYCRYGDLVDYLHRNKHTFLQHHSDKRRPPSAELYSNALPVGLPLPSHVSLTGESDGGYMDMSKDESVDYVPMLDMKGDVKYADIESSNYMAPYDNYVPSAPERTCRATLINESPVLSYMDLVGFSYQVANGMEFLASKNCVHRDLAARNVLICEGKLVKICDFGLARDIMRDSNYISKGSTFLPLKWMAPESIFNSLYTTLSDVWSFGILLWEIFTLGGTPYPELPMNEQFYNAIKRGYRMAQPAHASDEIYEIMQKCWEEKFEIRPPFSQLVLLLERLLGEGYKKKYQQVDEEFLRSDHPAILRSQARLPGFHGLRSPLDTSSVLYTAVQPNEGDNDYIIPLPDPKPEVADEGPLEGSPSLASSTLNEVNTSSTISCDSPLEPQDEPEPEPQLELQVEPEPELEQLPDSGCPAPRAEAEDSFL
Sequence of VEGFR2 (cytoplasmic domain KDR protein) (P35968 786-1356): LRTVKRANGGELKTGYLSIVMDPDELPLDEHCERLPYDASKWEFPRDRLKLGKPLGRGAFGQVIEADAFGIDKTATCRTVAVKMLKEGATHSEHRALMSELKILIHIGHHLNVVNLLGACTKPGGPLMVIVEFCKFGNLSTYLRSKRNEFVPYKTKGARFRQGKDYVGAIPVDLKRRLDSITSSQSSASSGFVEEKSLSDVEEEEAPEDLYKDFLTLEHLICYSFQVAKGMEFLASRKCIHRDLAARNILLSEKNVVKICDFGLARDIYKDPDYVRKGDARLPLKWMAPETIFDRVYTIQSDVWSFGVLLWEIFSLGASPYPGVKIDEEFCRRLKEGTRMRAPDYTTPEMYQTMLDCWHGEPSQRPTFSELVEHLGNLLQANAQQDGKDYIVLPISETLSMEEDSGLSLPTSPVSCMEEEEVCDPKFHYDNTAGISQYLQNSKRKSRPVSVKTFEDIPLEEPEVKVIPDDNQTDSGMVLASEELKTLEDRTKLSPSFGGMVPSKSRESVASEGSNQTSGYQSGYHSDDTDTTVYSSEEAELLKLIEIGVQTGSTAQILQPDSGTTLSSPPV

| IC50 [1] [nM] | IC50 [2] [nM] | IC50 [3] [nM] | IC50 [4] [nM] | SMILES |
| --- | --- | --- | --- | --- |
| 1460 | 464 | 938 | 2680 | O=C(Nc1cccc(C#Cc2ccc3nccn3n2)c1)c1ccc(F)c(Cl)c1 [Example 24, 3-chloro-4-fluoro-N-[3-(imidazo[1,2-b]pyridazin-6-ylethynyl)phenyl]benzamide] |
| 1120 | 88 | 767 | 371 | Cc1ccc(F)c(C(=O)Nc2cccc(C#Cc3ccc4nc(N)cn4n3)c2)c1 [Example 21, N-{3-[(2-aminoimidazo[1,2-b]pyridazin-6-yl)ethynyl]phenyl}-2-fluoro-5-methylbenzamide] |
| 162 | 90 | – | – | Cc1ccc(F)c(NC(=O)Nc2ccc(C#Cc3cccc4[nH]nc(N)c34)cc2)c1 [Example 33, 1-{4-[(3-amino-1H-indazol-4-yl)ethynyl]phenyl}-3-(2-fluoro-5-methylphenyl)urea] |
| 5430 | 267 | 185 | – | O=C(Nc1ccccc1)Nc1ccc(C#Cc2ccc3nccn3n2)cc1 [Example 8, 1-[4-(imidazo[1,2-b]pyridazin-6-ylethynyl)phenyl]-3-phenylurea] |
| – | 1800 | > 10000 | – | Cc1ccc(F)c(NC(=O)Nc2ccccc2C#Cc2ccc3nccn3n2)c1 [Example 30, 1-(2-fluoro-5-methylphenyl)-3-[2-(imidazo[1,2-b]pyridazin-6-ylethynyl)phenyl]urea] |
| > 10000 | 2930 | 3610 | 3630 | O=C(Nc1ccc(C#Cc2ccc3nc(NC(=O)Nc4ccc(F)c(Cl)c4)cn3n2)cc1)Nc1ccc(F)c(Cl)c1 [Example 15, 1-(3-chloro-4-fluorophenyl)-3-(4-{[2-({[(3-chloro-4-fluorophenyl)amino]carbonyl}amino)imidazo[1,2-b]pyridazin-6-yl]ethynyl}phenyl)urea] |
| > 10000 | 1250 | > 10000 | > 10000 | Nc1cn2nc(C#Cc3ccc(NC(=O)c4ccccc4)cc3)ccc2n1 [Example 19, N-{4-[(2-aminoimidazo[1,2-b]pyridazin-6-yl)ethynyl]phenyl}benzamide] |
| 4400 | > 10000 | > 10000 | > 10000 | Cc1ccc(F)c(C(=O)Nc2ccc(C#Cc3ccc4nc(N)cn4n3)cc2)c1 [Example 20, N-{4-[(2-aminoimidazo[1,2-b]pyridazin-6-yl)ethynyl]phenyl}-2-fluoro-5-methylbenzamide] |
| > 10000 | 1610 | 2720 | > 10000 | O=C(Nc1cccc(C#Cc2ccc3nccn3n2)c1)c1cc2ccccc2o1 [Example 25, N-[3-(imidazo[1,2-b]pyridazin-6-ylethynyl)phenyl]-1-benzofuran-2-carboxamide] |
| – | 4700 | > 10000 | – | Cc1ccc(F)c(NC(=O)Nc2cccc(C#Cc3ccc4nccn4n3)c2)c1 [Example 29, 1-(2-fluoro-5-methylphenyl)-3-[3-(imidazo[1,2-b]pyridazin-6-ylethynyl)phenyl]urea] |
| 1280 | 279 | 628 | 1630 | O=C(Nc1cccc(C#Cc2ccc3nccn3n2)c1)c1cccc(C(F)(F)F)c1 [Example 22, N-[3-(imidazo[1,2-b]pyridazin-6-ylethynyl)phenyl]-3-(trifluoromethyl)benzamide] |
| 423 | 73 | 55 | 516 | Nc1cn2nc(C#Cc3ccc(NC(=O)Nc4cc(C(F)(F)F)ccc4F)cc3)ccc2n1 [Example 4, 1-{4-[(2-aminoimidazo[1,2-b]pyridazin-6-yl)ethynyl]phenyl}-3-[2-fluoro-5-(trifluoromethyl)phenyl]urea] |
| 20 | 41 | – | – | Nc1n[nH]c2cccc(C#Cc3cccc(NC(=O)Nc4ccccc4)c3)c12 [Example 32, 1-{3-[(3-amino-1H-indazol-4-yl)ethynyl]phenyl}-3-phenylurea] |
| – | 96 | – | – | O=C(Nc1ccc(C#Cc2ccc3nccn3n2)cc1)Nc1ccc(F)c(Cl)c1 [Example 5, 1-(3-chloro-4-fluorophenyl)-3-[4-(imidazo[1,2-b]pyridazin-6-ylethynyl)phenyl]urea] |
| > 10000 | 1310 | – | > 10000 | Cc1cccc(NC(=O)Nc2ccc(C#Cc3ccc4nc(NC(=O)C5CC5)cn4n3)cc2)c1 [Example 12, N-(6-{[4-({[(3-methylphenyl)amino]carbonyl}amino)phenyl]ethynyl}imidazo[1,2-b]pyridazin-2-yl)cyclopropanecarboxamide] |
| 2050 | 127 | 43 | – | O=C(Nc1ccc(C#Cc2ccc3nccn3n2)cc1)Nc1ccc(Cl)c(C(F)(F)F)c1 [Example 7, 1-[4-chloro-3-(trifluoromethyl)phenyl]-3-[4-(imidazo[1,2-b]pyridazin-6-ylethynyl)phenyl]urea] |
| 862 | 295 | 1530 | – | Cc1cccc(C(=O)Nc2cccc(C#Cc3ccc4nccn4n3)c2)c1 [Example 23, N-[3-(imidazo[1,2-b]pyridazin-6-ylethynyl)phenyl]-3-methylbenzamide] |
| 16 | 21 | – | – | Cc1ccc(F)c(NC(=O)Nc2cccc(C#Cc3cccc4[nH]nc(N)c34)c2)c1 [Example 31, 1-{3-[(3-amino-1H-indazol-4-yl)ethynyl]phenyl}-3-(2-fluoro-5-methylphenyl)urea] |
| 8420 | 448 | 93 | – | O=C(Nc1ccc(C#Cc2ccc3nccn3n2)cc1)Nc1cc(C(F)(F)F)ccc1F [Example 9, 1-[2-fluoro-5-(trifluoromethyl)phenyl]-3-[4-(imidazo[1,2-b]pyridazin-6-ylethynyl)phenyl]urea] |
| > 10000 | 3180 | – | > 10000 | CC(=O)Nc1cn2nc(C#Cc3ccc(NC(=O)Nc4cccc(C)c4)cc3)ccc2n1 [Example 11, N-(6-{[4-({[(3-methylphenyl)amino]carbonyl}amino)phenyl]ethynyl}imidazo[1,2-b]pyridazin-2-yl)acetamide] |
| – | – | 67 | – | Cc1ccc(NC(=O)Nc2ccc(C#Cc3ccc4nccn4n3)cc2)cc1 [Example 13, 1-[4-(imidazo[1,2-b]pyridazin-6-ylethynyl)phenyl]-3-(4-methylphenyl)urea] |
| – | 101 | – | – | Cc1ccc(F)c(NC(=O)Nc2ccc(C#Cc3ccc4nccn4n3)cc2)c1 [Example 6, 1-(2-fluoro-5-methylphenyl)-3-[4-(imidazo[1,2-b]pyridazin-6-ylethynyl)phenyl]urea] |
